# Test results reported in ChEMBL document CHEMBL4425121, “Discovery of Substituted 1H-Pyrazolo[3,4-b]pyridine Derivatives as Potent and Selective FGFR Kinase Inhibitors” (ACS Med Chem Lett, 2016).
# How the values were obtained:
# [1] = biological target: Fibroblast growth factor receptor 1 (Homo sapiens, UniProt P11362); assay: Inhibition of recombinant human FGFR1 using poly (Glu,Tyr)4:1 as substrate incubated for 60 mins by ELISA
# NCI-H1581 [2] = assay: Antiproliferative activity against human NCI-H1581 cells after 72 hrs by CCK-8 assay; assay type: functional, cell-based; details: NCI-H1581, 72 h
# [3] = biological target: T1, Vascular endothelial growth factor receptor 2 (Homo sapiens, UniProt P35968); assay: Inhibition of VEGFR2 (unknown origin) overexpressed in mouse NIH/ 3T3 cells incubated for 5 mins followed by stimulation with VEGF for 5 mins by immunoblotting analysis; assay type: cell-based
# [4] = Volume of distribution in ICR mouse at 2 mg/kg, iv by LC-MS/MS analysis; assay type: ADME, organism-based; details: in vivo
# [5] = Cmax in ICR mouse at 2 mg/kg, iv by LC-MS/MS analysis; assay type: ADME, organism-based; parameters: dose 2 mg/kg, route intravenous; details: in vivo
# [6] = biological target: Fibroblast growth factor receptor 2 (Homo sapiens, UniProt P21802)
# Description: Inhibition of human FGFR2 using poly (Glu,Tyr)4:1 as substrate incubated for 60 mins by ELISA
# [7] = Cmax in ICR mouse at 12.5 mg/kg administered as oral gavage by LC-MS/MS analysis; assay type: ADME, organism-based; parameters: dose 12.5 mg/kg, route oral; details: in vivo
# SNU-16 = assay: Antiproliferative activity against human SNU16 cells after 72 hrs by CCK-8 assay; assay type: functional, cell-based; details: SNU-16, 72 h
# [8] = Toxicity in nude mouse xenografted with human NCI-H1581 cells assessed as body weight loss at 50 mg/kg, po qd administered for 21 days; assay type: organism-based; details: in vivo, 504 h
# [9] = biological target: Fibroblast growth factor receptor 4 (Homo sapiens, UniProt P22455)
# Description: Inhibition of human FGFR4 using poly (Glu,Tyr)4:1 as substrate incubated for 60 mins by ELISA
# NCI-H1581 [10] = assay: Antitumor activity against human NCI-H1581 cells xenografted in nude mouse assessed as tumor growth inhibition at 50 mg/kg, po qd administered for 21 days; assay type: functional; details: 504 h, read-out: TGI
# [11] = Protein binding in mouse plasma at 5 uM after 4 hrs by equilibrium dialysis assay; assay type: ADME, cell-free; details: read-out: PPB (converted)
# NCI-H1581 [12] = details: Homo sapiens
# Description: Antitumor activity against human NCI-H1581 cells xenografted in nude mouse assessed as tumor growth inhibition administered orally qd for 21 days
# [13] = Half life in ICR mouse at 2 mg/kg, iv by LC-MS/MS analysis; assay type: ADME, organism-based; details: in vivo
# [14] = Antiproliferative activity against human KATO III cells after 72 hrs by CCK-8 assay; assay type: functional, cell-based
# [15] = Half life in ICR mouse at 12.5 mg/kg administered as oral gavage by LC-MS/MS analysis; assay type: ADME, organism-based; details: in vivo
# [16] = AUC(0 to infinity) in ICR mouse at 12.5 mg/kg administered as oral gavage by LC-MS/MS analysis; assay type: ADME, organism-based; parameters: dose 12.5 mg/kg, route oral, time infinity; details: in vivo
# [17] = Clearance in ICR mouse at 2 mg/kg, iv by LC-MS/MS analysis; assay type: ADME, organism-based; details: in vivo
# NCI-H1581 [18] = assay: Antitumor activity against human NCI-H1581 cells xenografted in nude mouse assessed as tumor growth inhibition at 12.5 mg/kg, po qd administered for 21 days; assay type: functional; details: 504 h, read-out: TGI
# RT-112 = assay: Antiproliferative activity against human RT112 cells after 72 hrs by CCK-8 assay; assay type: functional, cell-based; details: RT-112, 72 h
# [19] = biological target: Fibroblast growth factor receptor 3 (Homo sapiens, UniProt P22607); assay: Inhibition of human FGFR3 using poly (Glu,Tyr)4:1 as substrate incubated for 60 mins by ELISA
# [20] = Oral bioavailability in ICR mouse at 12.5 mg/kg administered as gavage by LC-MS/MS analysis; assay type: ADME, organism-based; details: in vivo
# KG-1 = assay: Antiproliferative activity against human KG1 cells after 72 hrs by CCK-8 assay; assay type: functional, cell-based; details: KG-1, 72 h
# [21] = AUC(0 to infinity) in ICR mouse at 2 mg/kg, iv by LC-MS/MS analysis; assay type: ADME, organism-based; parameters: dose 2 mg/kg, time infinity, route intravenous; details: in vivo
# [22] = Toxicity in nude mouse xenografted with human NCI-H1581 cells assessed as body weight loss at 12.5 mg/kg, po qd administered for 21 days; assay type: organism-based; details: in vivo, 504 h
# [23] = biological target: T1, Vascular endothelial growth factor receptor 2; assay: Inhibition of recombinant human VEGFR2 using poly (Glu,Tyr)4:1 as substrate incubated for 60 mins by ELISA
# Sequence of Fibroblast growth factor receptor 1 (P11362 whole entry): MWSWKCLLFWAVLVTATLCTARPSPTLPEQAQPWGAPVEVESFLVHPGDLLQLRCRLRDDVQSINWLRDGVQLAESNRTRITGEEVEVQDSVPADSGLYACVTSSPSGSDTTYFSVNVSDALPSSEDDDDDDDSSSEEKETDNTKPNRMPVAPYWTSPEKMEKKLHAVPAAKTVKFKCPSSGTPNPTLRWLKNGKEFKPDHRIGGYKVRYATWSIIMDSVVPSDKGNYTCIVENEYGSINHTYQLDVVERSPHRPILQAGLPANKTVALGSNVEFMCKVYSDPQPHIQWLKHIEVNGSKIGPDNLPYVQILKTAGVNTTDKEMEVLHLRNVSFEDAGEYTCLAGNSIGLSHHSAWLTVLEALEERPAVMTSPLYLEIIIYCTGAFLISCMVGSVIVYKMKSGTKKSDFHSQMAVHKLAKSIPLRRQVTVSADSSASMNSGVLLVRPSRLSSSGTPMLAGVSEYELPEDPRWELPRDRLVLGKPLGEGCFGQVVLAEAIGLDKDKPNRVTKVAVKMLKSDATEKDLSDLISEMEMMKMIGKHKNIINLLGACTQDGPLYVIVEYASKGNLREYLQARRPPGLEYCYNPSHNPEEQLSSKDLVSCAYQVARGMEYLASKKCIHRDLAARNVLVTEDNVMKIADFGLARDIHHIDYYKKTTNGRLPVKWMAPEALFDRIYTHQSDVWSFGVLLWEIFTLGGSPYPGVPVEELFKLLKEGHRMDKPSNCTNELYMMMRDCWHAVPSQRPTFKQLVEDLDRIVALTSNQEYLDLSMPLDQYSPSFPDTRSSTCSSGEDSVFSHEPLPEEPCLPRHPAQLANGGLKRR
# T1 sequence (P35968 whole entry): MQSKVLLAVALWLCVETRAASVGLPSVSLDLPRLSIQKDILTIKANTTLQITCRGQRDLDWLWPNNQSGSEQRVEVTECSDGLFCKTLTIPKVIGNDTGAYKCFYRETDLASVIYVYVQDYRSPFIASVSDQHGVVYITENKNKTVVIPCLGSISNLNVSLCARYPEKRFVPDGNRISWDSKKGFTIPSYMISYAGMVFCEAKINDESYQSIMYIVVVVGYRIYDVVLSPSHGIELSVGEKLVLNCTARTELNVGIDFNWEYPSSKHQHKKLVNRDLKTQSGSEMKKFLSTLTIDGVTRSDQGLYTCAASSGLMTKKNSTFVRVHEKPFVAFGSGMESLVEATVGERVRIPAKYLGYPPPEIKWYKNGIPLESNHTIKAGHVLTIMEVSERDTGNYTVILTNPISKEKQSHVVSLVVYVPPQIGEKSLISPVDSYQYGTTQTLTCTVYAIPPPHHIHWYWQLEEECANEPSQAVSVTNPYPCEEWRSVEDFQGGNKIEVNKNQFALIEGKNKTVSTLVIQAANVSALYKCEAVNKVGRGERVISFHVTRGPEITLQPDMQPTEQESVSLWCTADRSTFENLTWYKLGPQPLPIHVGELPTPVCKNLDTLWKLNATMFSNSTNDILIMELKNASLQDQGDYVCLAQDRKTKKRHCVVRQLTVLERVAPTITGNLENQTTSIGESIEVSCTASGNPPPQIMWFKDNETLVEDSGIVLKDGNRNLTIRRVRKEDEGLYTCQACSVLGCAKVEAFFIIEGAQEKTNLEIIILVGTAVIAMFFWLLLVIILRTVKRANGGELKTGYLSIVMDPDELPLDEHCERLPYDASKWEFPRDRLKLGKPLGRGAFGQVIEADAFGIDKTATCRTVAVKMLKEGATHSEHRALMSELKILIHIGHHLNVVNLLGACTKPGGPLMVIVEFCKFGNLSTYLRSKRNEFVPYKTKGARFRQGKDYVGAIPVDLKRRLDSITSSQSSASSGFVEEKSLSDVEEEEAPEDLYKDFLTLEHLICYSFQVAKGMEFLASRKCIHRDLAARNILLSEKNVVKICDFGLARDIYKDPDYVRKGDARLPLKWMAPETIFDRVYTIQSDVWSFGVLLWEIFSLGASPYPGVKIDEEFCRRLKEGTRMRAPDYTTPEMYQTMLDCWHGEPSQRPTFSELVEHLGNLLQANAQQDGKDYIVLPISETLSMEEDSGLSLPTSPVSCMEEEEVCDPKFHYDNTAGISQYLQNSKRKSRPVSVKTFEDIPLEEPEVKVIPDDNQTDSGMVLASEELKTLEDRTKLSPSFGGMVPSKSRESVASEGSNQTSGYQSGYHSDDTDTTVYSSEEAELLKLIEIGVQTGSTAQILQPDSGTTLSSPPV
# Sequence of Fibroblast growth factor receptor 2 (P21802 whole entry): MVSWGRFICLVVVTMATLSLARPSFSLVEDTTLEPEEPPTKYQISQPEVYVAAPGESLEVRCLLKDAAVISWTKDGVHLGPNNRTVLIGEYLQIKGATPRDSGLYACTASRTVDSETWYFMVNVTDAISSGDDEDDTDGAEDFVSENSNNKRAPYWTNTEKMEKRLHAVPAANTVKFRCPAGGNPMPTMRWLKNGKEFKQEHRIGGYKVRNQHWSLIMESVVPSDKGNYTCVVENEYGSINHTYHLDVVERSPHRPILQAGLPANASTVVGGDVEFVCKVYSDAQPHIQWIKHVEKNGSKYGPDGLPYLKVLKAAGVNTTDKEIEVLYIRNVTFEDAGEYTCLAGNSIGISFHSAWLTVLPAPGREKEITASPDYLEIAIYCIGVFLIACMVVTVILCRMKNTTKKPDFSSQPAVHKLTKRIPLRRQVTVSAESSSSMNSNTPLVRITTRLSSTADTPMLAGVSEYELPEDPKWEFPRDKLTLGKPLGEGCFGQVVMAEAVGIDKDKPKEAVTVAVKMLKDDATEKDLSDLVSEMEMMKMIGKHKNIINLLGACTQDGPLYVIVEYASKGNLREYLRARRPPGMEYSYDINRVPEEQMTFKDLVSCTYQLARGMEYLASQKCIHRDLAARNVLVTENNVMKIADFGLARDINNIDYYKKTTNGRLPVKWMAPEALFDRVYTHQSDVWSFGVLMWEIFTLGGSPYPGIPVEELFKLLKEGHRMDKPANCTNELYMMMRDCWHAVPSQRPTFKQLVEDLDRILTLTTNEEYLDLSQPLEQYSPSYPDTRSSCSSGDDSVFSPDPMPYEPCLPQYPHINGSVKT
# Sequence of Fibroblast growth factor receptor 3 (P22607 whole entry): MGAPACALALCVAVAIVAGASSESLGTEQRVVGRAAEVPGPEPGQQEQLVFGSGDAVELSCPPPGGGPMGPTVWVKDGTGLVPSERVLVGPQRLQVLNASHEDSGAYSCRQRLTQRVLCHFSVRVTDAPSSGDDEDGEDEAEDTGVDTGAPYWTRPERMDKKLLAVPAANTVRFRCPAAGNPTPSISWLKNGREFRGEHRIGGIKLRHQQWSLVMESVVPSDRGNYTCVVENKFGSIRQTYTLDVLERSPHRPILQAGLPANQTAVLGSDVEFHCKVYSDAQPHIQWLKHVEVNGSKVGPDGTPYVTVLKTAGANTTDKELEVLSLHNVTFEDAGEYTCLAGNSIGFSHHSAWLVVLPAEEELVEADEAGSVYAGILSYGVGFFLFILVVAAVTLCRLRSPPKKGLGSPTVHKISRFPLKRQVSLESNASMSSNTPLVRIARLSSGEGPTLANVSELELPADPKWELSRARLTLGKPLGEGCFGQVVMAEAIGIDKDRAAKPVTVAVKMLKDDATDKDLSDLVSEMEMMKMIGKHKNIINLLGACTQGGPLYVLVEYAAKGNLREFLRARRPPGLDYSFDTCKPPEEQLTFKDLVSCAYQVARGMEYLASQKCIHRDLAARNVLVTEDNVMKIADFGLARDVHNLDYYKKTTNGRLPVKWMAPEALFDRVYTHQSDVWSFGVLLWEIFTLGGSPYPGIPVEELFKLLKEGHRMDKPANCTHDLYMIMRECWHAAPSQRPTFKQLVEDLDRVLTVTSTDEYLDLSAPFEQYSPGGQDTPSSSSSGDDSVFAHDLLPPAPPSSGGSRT
# Sequence of Fibroblast growth factor receptor 4 (P22455 whole entry): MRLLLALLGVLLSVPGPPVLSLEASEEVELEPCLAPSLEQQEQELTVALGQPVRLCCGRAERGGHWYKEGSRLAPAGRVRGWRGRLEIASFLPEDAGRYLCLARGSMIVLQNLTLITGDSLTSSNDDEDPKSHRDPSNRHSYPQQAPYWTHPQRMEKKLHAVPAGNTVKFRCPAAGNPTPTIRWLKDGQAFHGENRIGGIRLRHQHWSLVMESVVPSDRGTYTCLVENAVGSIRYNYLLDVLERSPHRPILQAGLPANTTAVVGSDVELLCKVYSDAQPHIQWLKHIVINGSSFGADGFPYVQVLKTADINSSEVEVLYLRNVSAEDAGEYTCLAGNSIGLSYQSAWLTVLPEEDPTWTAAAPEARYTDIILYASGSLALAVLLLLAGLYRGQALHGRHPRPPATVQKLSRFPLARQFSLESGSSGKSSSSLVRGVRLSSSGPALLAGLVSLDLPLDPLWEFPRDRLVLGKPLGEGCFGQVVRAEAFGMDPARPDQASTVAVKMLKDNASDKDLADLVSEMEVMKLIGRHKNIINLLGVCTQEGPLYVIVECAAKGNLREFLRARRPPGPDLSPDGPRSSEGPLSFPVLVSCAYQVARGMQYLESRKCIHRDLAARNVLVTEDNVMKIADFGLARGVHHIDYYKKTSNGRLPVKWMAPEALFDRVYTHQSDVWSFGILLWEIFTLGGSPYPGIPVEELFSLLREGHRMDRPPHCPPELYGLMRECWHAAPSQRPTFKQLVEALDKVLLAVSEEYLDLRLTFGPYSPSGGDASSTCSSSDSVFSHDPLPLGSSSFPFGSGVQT
smiles,measurement,setting,value
COc1cc(OC)c(Cl)c(-c2ccc3c(NC(=O)c4ccc(N5CCN(S(C)(=O)=O)CC5)cc4)n[nH]c3n2)c1Cl,IC50,[1],0.2 nM
same,IC50,NCI-H1581 [2],245 nM
CCN(CC)CCCCNc1ncc2cc(-c3cc(OC)cc(OC)c3)c(NC(=O)NC(C)(C)C)nc2n1 [PD-173074],IC50,[3],100 to 200 nM
COc1cc(OC)c(Cl)c(-c2ccc3c(NC(=O)c4ccc(N5CCN(C(C)C)CC5)cc4)n[nH]c3n2)c1Cl,IC50,[1],1.4 nM
same,IC50,NCI-H1581 [2],1.4 nM
COc1cc(N2CCN(C)CC2)ccc1C(=O)Nc1n[nH]c2nc(-c3c(Cl)c(OC)cc(OC)c3Cl)ccc12,IC50,[1],74.4 nM
same,IC50,NCI-H1581 [2],525 nM
COc1cc(OC)c(Cl)c(-c2ccc3c(NC(=O)c4cnc(N5CCN(C)CC5)cn4)n[nH]c3n2)c1Cl,IC50,[1],10.5 nM
same,IC50,NCI-H1581 [2],60.6 nM
COc1cc(OC)c(Cl)c(-c2ccc3c(NC(=O)c4ccc(N5CCN(C)CC5)c(Cl)c4)n[nH]c3n2)c1Cl,IC50,[1],14.5 nM
same,IC50,NCI-H1581 [2],191 nM
COc1cc(OC)c(Cl)c(-c2ccc3c(NC(=O)c4ccc(N(C)C)cc4)n[nH]c3n2)c1Cl,IC50,[1],16.5 nM
same,IC50,NCI-H1581 [2],294 nM
COc1cc(OC)c(Cl)c(-c2ccc3c(NC(=O)c4ccc(N5CCN(C)CC5)s4)n[nH]c3n2)c1Cl,IC50,[1],4.1 nM
same,IC50,NCI-H1581 [2],3.7 nM
COCCN1CCN(c2ccc(C(=O)Nc3n[nH]c4nc(-c5c(Cl)c(OC)cc(OC)c5Cl)ccc34)cc2)CC1,Vd,[4],4.51 L/kg
same,Cmax,[5],826 ng/mL
same,IC50,[6],0.7 nM
same,Cmax,[7],1650 ng/mL
same,IC50,SNU-16,< 0.2 nM
same,Activity,[8],Non-Toxic
same,IC50,[9],52.7 nM
same,inhibition in vivo at 50 mg/kg,NCI-H1581 [10],100%
same,"fraction unbound at 4 h, 5 µM",[11],0.004
same,TGI,NCI-H1581 [12],Dose-dependent effect
same,half-life,[13],3.13 h
same,IC50,[14],< 0.4 nM
same,half-life,[15],2.76 h
same,IC50,[1],0.3 nM
same,AUC(0-inf),[16],9010 ng·h/mL
same,IC50,NCI-H1581 [2],0.7 nM
same,clearance,[17],16.6 mL/min/kg
same,inhibition in vivo at 12.5 mg/kg,NCI-H1581 [18],54%
same,IC50,RT-112,< 0.2 nM
same,IC50,[19],2 nM
same,bioavailability,[20],72%
same,IC50,KG-1,< 0.2 nM
same,AUC(0-inf),[21],2000 ng·h/mL
same,Activity,[22],Non-Toxic
COc1cc(OC)c(Cl)c(-c2ccc3c(NC(=O)c4ccc(N5CCOCC5)cc4)n[nH]c3n2)c1Cl,IC50,[1],7.7 nM
same,IC50,NCI-H1581 [2],865 nM
COc1cc(OC)c(Cl)c(-c2ccc3c(NC(=O)c4ccc(N5CCN(C)CC5)nc4)n[nH]c3n2)c1Cl,IC50,[1],6.2 nM
same,IC50,NCI-H1581 [2],1.5 nM
COc1cc(OC)c(Cl)c(-c2ccc3c(NC(=O)c4ccc(N5CCN(C6CCC6)CC5)cc4)n[nH]c3n2)c1Cl,IC50,[1],0.2 nM
same,IC50,NCI-H1581 [2],2.3 nM
COc1cc(OC)c(Cl)c(-c2ccc3c(NC(=O)c4ccc(N5CCN(C)CC5)cc4)n[nH]c3n2)c1Cl,IC50,[1],0.3 nM
same,IC50,NCI-H1581 [2],1.7 nM
same,IC50,[23],366 nM
COc1cc(CCc2cc(NC(=O)c3ccc(N4C[C@@H](C)N[C@@H](C)C4)cc3)n[nH]2)cc(OC)c1 [FEXAGRATINIB],Vd,[4],3.18 L/kg
same,Cmax,[5],1880 ng/mL
same,Cmax,[7],1350 ng/mL
same,IC50,SNU-16,1.2 nM
same,"fraction unbound at 4 h, 5 µM",[11],0.007
same,half-life,[13],2.29 h
same,IC50,[14],20.2 nM
same,half-life,[15],2.55 h
same,AUC(0-inf),[16],9130 ng·h/mL
same,IC50,NCI-H1581 [2],37.9 nM
same,clearance,[17],16.1 mL/min/kg
same,inhibition in vivo at 12.5 mg/kg,NCI-H1581 [18],77.1%
same,IC50,RT-112,0.6 nM
same,bioavailability,[20],74.7%
same,IC50,KG-1,< 0.2 nM
same,AUC(0-inf),[21],2080 ng·h/mL
COc1cc(OC)c(Cl)c(-c2ccc3c(NC(=O)c4ccc(N5CCNCC5)cc4)n[nH]c3n2)c1Cl,IC50,[1],11.7 nM
same,IC50,NCI-H1581 [2],1.4 nM
COc1cc(OC)c(Cl)c(-c2ccc3c(NC(=O)c4ccc(N5CCN(C)CC5)cc4Cl)n[nH]c3n2)c1Cl,IC50,[1],14 nM
same,IC50,NCI-H1581 [2],27.6 nM
COc1cc(OC)c(Cl)c(-c2ccc3c(NC(=O)c4ccc(N5CCN(C)CC5)cc4)n[nH]c3c2)c1Cl,IC50,[1],3.3 nM
same,IC50,NCI-H1581 [2],324 nM
COc1cc(OC)c(Cl)c(-c2ccc3c(NC(=O)c4ccccc4)n[nH]c3n2)c1Cl,IC50,[1],42.4 nM
same,IC50,NCI-H1581 [2],> 1000 nM
COc1cc(OC)c(Cl)c(-c2ccc3c(NC(=O)c4ccc(N5CCCN(C)CC5)cc4)n[nH]c3n2)c1Cl,Vd,[4],5.43 L/kg
same,Cmax,[5],870 ng/mL
same,Cmax,[7],500 ng/mL
same,"fraction unbound at 4 h, 5 µM",[11],0.004
same,half-life,[13],3.47 h
same,half-life,[15],2.9 h
same,IC50,[1],7.2 nM
same,AUC(0-inf),[16],4620 ng·h/mL
same,IC50,NCI-H1581 [2],1.3 nM
same,clearance,[17],18.1 mL/min/kg
same,bioavailability,[20],40.2%
same,AUC(0-inf),[21],1840 ng·h/mL
CCN1CCN(c2ccc(C(=O)Nc3n[nH]c4nc(-c5c(Cl)c(OC)cc(OC)c5Cl)ccc34)cc2)CC1,IC50,[1],0.5 nM
same,IC50,NCI-H1581 [2],0.7 nM
COc1cc(OC)c(Cl)c(-c2ccc3c(NC(=O)c4ccc(N5CCN(CCO)CC5)cc4)n[nH]c3n2)c1Cl,Vd,[4],10 L/kg
same,Cmax,[5],796 ng/mL
same,Cmax,[7],802 ng/mL
same,"fraction unbound at 4 h, 5 µM",[11],0.005
same,half-life,[13],3.74 h
same,half-life,[15],3.38 h
same,IC50,[1],0.3 nM
same,AUC(0-inf),[16],3510 ng·h/mL
same,IC50,NCI-H1581 [2],< 0.5 nM
same,clearance,[17],31 mL/min/kg
same,bioavailability,[20],52.3%
same,AUC(0-inf),[21],1080 ng·h/mL
COc1cc(OC)c(Cl)c(-c2ccc3c(NC(=O)c4ccc(N(C)CCN(C)C)cc4)n[nH]c3n2)c1Cl,IC50,[1],3.9 nM
same,IC50,NCI-H1581 [2],11 nM
COc1cc(OC)c(Cl)c(-c2ccc3c(NC(=O)c4ccc(C5CCN(C)CC5)cc4)n[nH]c3n2)c1Cl,IC50,[1],6.9 nM
same,IC50,NCI-H1581 [2],8.2 nM
COc1cc(OC)cc(-c2ccc3c(NC(=O)c4ccc(N5CCN(C)CC5)cc4)n[nH]c3n2)c1,IC50,[1],3710 nM
same,IC50,NCI-H1581 [2],> 1000 nM
same,IC50,[23],548 nM
COc1cc(OC)c(Cl)c(-c2ccc3c(NC(=O)c4ccc(N)cc4)n[nH]c3n2)c1Cl,IC50,[1],8.8 nM
same,IC50,NCI-H1581 [2],218 nM
C=CCN1CCN(c2ccc(C(=O)Nc3n[nH]c4nc(-c5c(Cl)c(OC)cc(OC)c5Cl)ccc34)cc2)CC1,IC50,[1],0.6 nM
same,IC50,NCI-H1581 [2],3.3 nM
COc1cc(C(=O)Nc2n[nH]c3nc(-c4c(Cl)c(OC)cc(OC)c4Cl)ccc23)ccc1N1CCN(C)CC1,IC50,[1],14.2 nM
same,IC50,NCI-H1581 [2],15.6 nM
COc1cc(OC)c(Cl)c(-c2ccc3c(NC(=O)c4ccc(N5CCCCC5)cc4)n[nH]c3n2)c1Cl,IC50,[1],8.8 nM
same,IC50,NCI-H1581 [2],558 nM
COc1cc(OC)c(Cl)c(-c2ccc3c(NC(=O)c4ccc(N5CCN(C(C)=O)CC5)cc4)n[nH]c3n2)c1Cl,IC50,[1],0.3 nM
same,IC50,NCI-H1581 [2],43.3 nM
COc1cc(OC)c(Cl)c(-c2ccc3c(NC(=O)c4ccc(N5CCN(C)CC5)cn4)n[nH]c3n2)c1Cl,IC50,[1],7.8 nM
same,IC50,NCI-H1581 [2],4.4 nM
COc1cc(OC)c(Cl)c(-c2ccc3c(NC(=O)c4ccc(N5CCN(C)CC5)cc4)nn(C)c3n2)c1Cl,IC50,[1],> 5000 nM
